Assays:
[1] = Backbone cleavage on expression from CHO cells (reducing SDS-PAGE, Western blot); parameters: species or system Chinese Hamster; details: expressed from CHO cells
Procedure: The amino acid backbone of IGF2 is cleaved when expressed from Chinese Hamster Ovary (CHO) cells (FIG. 13A) as visualized on a reducing SDS-PAGE and Western blot (FIG. 13B). The CHO cells were grown in a 37° C. incubator with a humidified atmosphere of 8% CO2 on an orbital shaker platform with a shaking speed 125 rpm to reach 4E6 cells/mL, followed by transferring the calculated volume of cells to fresh, pre-warmed ExpiCHO™ Expression Medium in a shake flask. Incubated flasks in a 37° C. incubator with a humidified atmosphere of 8% CO2 shook on an orbital shaker platform until cultures reached a density of 4×106−6×10^6 viable cells/mL.
After mixing each plasmid with 100 ul SFM in a microtube; ExpiFectamine (8 ul ×10.5=84 ul) with OptiPro medium (92 ul×10.5=966 ul) in a microtube; adding 100 ul into the plasmid tube and mix by pipetting; After 5 min, add 200 ul into each well and swirl to mix. mix enhancer (15×10.2=153 ul) with feed ([…]), add 615 ul into each well. Culture supernatant collected at intervals was spun down at low speed and high speed, then frozen at −80 deg. Aliquots were analyzed for protein concentration by nanodrop, and then an equivalent amount loaded onto 4-12% SDS-PAGE gels for molecular weight distribution analysis. […]

[2] = tested on: DM1 human myoblast; assay: Myogenic gene expression fold change in DM1 human myoblast; assay type: cell-based; details: 48 h; BMP7 50 ng/mL, Butyrate 100 nM, IGF2 200 ng/mL
Procedure: Myoblasts were cultured 48 h in the presence of factors (BMP7 50 ng/mL, Butyrate 100 nM, IGF2 200 ng/mL).
Myoblasts were cultured 96 h in the presence of factors (IGF2 200 ng/ml). […] Myoblasts were cultured 48 h in the presence of factors (IGF2 200 ng/mL).
IGF2 was tested individually for its ability to promote proliferation and/or fusion of human muscle progenitor cells from an individual with myotonic dystrophy type 1 (hMD)—a muscular dystrophy caused by mutations in the DMPK1 gene. The effect of IGF2 on myogenic activity was assayed in biological triplicate across a range of concentrations centered around expected physiological levels by adding each factor to hMD myoblasts for 72 hours with daily media changes (DMEM +2% horse serum) and a second pulse of factors at the first media change. After 72 or 96 hours, cells were pulsed for 2-5 hours with EdU (30 uM), ethanol fixed, stained with Hoescht 3342, immunostained for proliferation—as measured by the percent of cells staining positive for EdU (% EdU)-, and immunostained for differentiation—as measured by the increase in cellular area staining positive for embryonic myosin heavy chain (% eMyHC) relative to the negative controls, which received media and vehicle only. Wells were imaged on a Keyence BZ-100 at 4×, the images quantified in Cell Profiler, and the statistics were computed in R. Additionally, RNA was extracted from myoblast and select transcript abundances quantified by qPCR.

## IGF2: Human IGF2 amino acid sequence, SEQ ID NO: 29
[1]
  cleavage of the IGF2 amino acid backbone: is cleaved
[2]
  MYF5 expression fold change compared to FM (vehicle): 0.730
  MYOD1 expression fold change compared to FM (vehicle): 1.252
  MYOG expression fold change compared to FM (vehicle): 2.972

— US12329801B2, “Regenerative polypeptides and uses thereof” (JUVENA THERAPEUTICS, INC., priority 2021, dated 2025)
